Source: ChEMBL document CHEMBL4483862, “Open-source discovery of chemical leads for next-generation chemoprotective antimalarials” (2018)

System: Plasmodium berghei
Assay: Luciferase/luciferin-expressing antifolate-resistant parasites were used to infect a culture of HepG2 cells that were pre-incubated with compounds. Infected hepatocytes emit light due to the luciferase reaction. Assay results are presented as the percent inhibition of light emission compared to control. […]
Type: functional
Settings: sporozoite; for IC90: read-out: LUCIFERASE INFECTION ASSAY - IC90

Row | SMILES | IC90 [µM] | further results
1 | CC(Sc1ncnc2sc(-c3ccccc3)cc12)C(=O)N1CCNC1=O (stereo not given) | > 10 | IC50 (PBLUC_HILL_SLOPE 3.73, PBLUC_R_SQUARED 0.46, read-out: LUCIFERASE INFECTION ASSAY - IC50): 5.98 µM
2 | O=C(Nc1cccc(Cl)c1)Nc1cccc(Cl)c1 | 5.51 | IC50 (PBLUC_HILL_SLOPE 3.72, PBLUC_R_SQUARED 0.618, read-out: LUCIFERASE INFECTION ASSAY - IC50): 3.05 µM
3 | COc1ccccc1N(C)S(=O)(=O)c1ccc(Cl)c(C(=O)Nc2cccc(C)n2)c1 | 2.83 | IC50 (PBLUC_HILL_SLOPE 3.61, PBLUC_R_SQUARED 0.716, read-out: LUCIFERASE INFECTION ASSAY - IC50): 1.54 µM
4 | NC(=O)c1ccsc1NC(=O)Cc1ccc(-c2ccccc2)cc1 | 3.7 | IC50 (PBLUC_HILL_SLOPE 3.68, PBLUC_R_SQUARED 0.581, read-out: LUCIFERASE INFECTION ASSAY - IC50): 2.04 µM
5 | CN1CCN(C(=O)c2cccc(-c3cnc4cnc(-c5ccccc5Oc5ccccc5)cn34)c2)CC1 | > 6.74 | IC50 (PBLUC_HILL_SLOPE 3.72, PBLUC_R_SQUARED 0.499, read-out: LUCIFERASE INFECTION ASSAY - IC50): 3.93 µM
6 | COc1cccc(NC(=O)N2CCc3nc(Nc4ccc(C(C)C)cc4)ncc3C2)c1 | > 7.9 | IC50 (PBLUC_HILL_SLOPE 3.71, PBLUC_R_SQUARED 0.181, read-out: LUCIFERASE INFECTION ASSAY - IC50): 6.78 µM
7 | COc1ccc(/C(C)=N/OCC(=O)O)cc1 | > 14.8 | IC50 (PBLUC_HILL_SLOPE 3.66, PBLUC_R_SQUARED 0.112, read-out: LUCIFERASE INFECTION ASSAY - IC50): > 14.8 µM
8 | c1ccc(Oc2ccccc2-c2cn3c(-c4ccncc4)cnc3cn2)cc1 | 8.82 | IC50 (PBLUC_HILL_SLOPE 3.74, PBLUC_R_SQUARED 0.758, read-out: LUCIFERASE INFECTION ASSAY - IC50): 4.9 µM
9 | CC(=O)c1cccc(-c2cnc3cnc(-c4cccnc4)cn23)c1 | > 10.5 | IC50 (PBLUC_HILL_SLOPE 3.62, PBLUC_R_SQUARED 0.754, read-out: LUCIFERASE INFECTION ASSAY - IC50): 6.77 µM
10 | COc1ccc(Cn2nc(C(=O)NC3CCCC3)c3c2CCN(C(=O)c2cc4ccccc4o2)C3)cc1 | > 6.62 | IC50 (PBLUC_HILL_SLOPE 3.73, PBLUC_R_SQUARED 0.19, read-out: LUCIFERASE INFECTION ASSAY - IC50): 4.5 µM
11 | COc1ccc(-c2cc(-c3nnc4n3CCCCC4)c3c(C)nn(-c4ccccc4)c3n2)cc1 | > 10 | IC50 (PBLUC_HILL_SLOPE 3.73, PBLUC_R_SQUARED 0.529, read-out: LUCIFERASE INFECTION ASSAY - IC50): 5.69 µM
12 | Cc1ccc2nc(NC(=O)c3ccc(Cl)cc3)c(C(=O)NC3CCCCC3)n2c1 | 6.42 | IC50 (PBLUC_HILL_SLOPE 3.64, PBLUC_R_SQUARED 0.503, read-out: LUCIFERASE INFECTION ASSAY - IC50): 3.51 µM
13 | Cc1ccc(C)c(-n2nnnc2SCC(=O)NC(=O)NC23CC4CC(CC(C4)C2)C3)c1 | 9.88 | IC50 (PBLUC_HILL_SLOPE 3.63, PBLUC_R_SQUARED 0.524, read-out: LUCIFERASE INFECTION ASSAY - IC50): 5.39 µM
14 | Cc1sc2[nH]c(CSCC(=O)c3cc(C)n(-c4ccc(Br)cc4)c3C)nc(=O)c2c1C | > 10 | IC50 (PBLUC_HILL_SLOPE 3.74, PBLUC_R_SQUARED 0.361, read-out: LUCIFERASE INFECTION ASSAY - IC50): 6.79 µM
15 | O=C(Nc1nc2ccccn2c1C(=O)NC1CCCC1)c1c(F)cccc1F | > 8.59 | IC50 (PBLUC_HILL_SLOPE 3.61, PBLUC_R_SQUARED 0.639, read-out: LUCIFERASE INFECTION ASSAY - IC50): 6.29 µM
16 | Cc1cc(C(=O)N2CCc3sccc3C2)c2c(C)noc2n1 | > 10 | IC50 (PBLUC_HILL_SLOPE 3.72, PBLUC_R_SQUARED 0.0188, read-out: LUCIFERASE INFECTION ASSAY - IC50): > 10 µM
17 | CNC(=O)c1ccc(CN(C2CC2)S(=O)(=O)c2ccc(C)c(C)c2)cc1 | > 10 | IC50 (PBLUC_HILL_SLOPE 3.66, PBLUC_R_SQUARED 0.689, read-out: LUCIFERASE INFECTION ASSAY - IC50): 5.91 µM
18 | CCOc1ccc(S(=O)(=O)/N=C2\C=C3N(CCO)CCOC3(O)c3ccccc32)cc1 (stereo not given) | > 10 | IC50 (PBLUC_HILL_SLOPE 3.7, PBLUC_R_SQUARED 0.815, read-out: LUCIFERASE INFECTION ASSAY - IC50): 7.21 µM
19 | CCCNC(=O)C1CN(C(=O)c2oc3ccccc3c2COc2ccccc2)c2ccccc2O1 (stereo not given) | > 10 | IC50 (PBLUC_HILL_SLOPE 3.71, PBLUC_R_SQUARED 0.44, read-out: LUCIFERASE INFECTION ASSAY - IC50): 6.61 µM
20 | CNC(=O)CN(C)Cc1c(O)c(C(=O)NCc2ccccc2)cc2ccccc12 | > 10 | IC50 (PBLUC_HILL_SLOPE 3.62, PBLUC_R_SQUARED 0.233, read-out: LUCIFERASE INFECTION ASSAY - IC50): 8.75 µM

Row | SMILES | IC90 [µM] | further results
21 | CCCCNC(=O)c1c(NC(=O)c2cc(F)ccc2C)nc2ccccn12 | > 8.96 | IC50 (PBLUC_HILL_SLOPE 3.71, PBLUC_R_SQUARED 0.517, read-out: LUCIFERASE INFECTION ASSAY - IC50): 6.93 µM
22 | Cn1cc(-c2cn3c(-c4cccc(OC(F)(F)F)c4)cnc3cn2)cn1 | > 9.18 | IC50 (PBLUC_HILL_SLOPE 3.72, PBLUC_R_SQUARED 0.643, read-out: LUCIFERASE INFECTION ASSAY - IC50): 5.44 µM
23 | O=C(Nc1nc2ccccc2[nH]1)c1ccc(-c2ccc(F)cc2)s1 | 5.74 | IC50 (PBLUC_HILL_SLOPE 3.71, PBLUC_R_SQUARED 0.757, read-out: LUCIFERASE INFECTION ASSAY - IC50): 3.18 µM
24 | CC(C)N1CCN(c2ccc(-c3cn4c(-c5cccc(O)c5)cnc4cn3)cc2)CC1 | > 7.98 | IC50 (PBLUC_HILL_SLOPE 3.65, PBLUC_R_SQUARED 0.123, read-out: LUCIFERASE INFECTION ASSAY - IC50): > 7.98 µM
25 | CCN1CCN(c2cc(C(C)(C)C)nc3c(-c4ccccc4)cnn23)CC1 | > 9.08 | IC50 (PBLUC_HILL_SLOPE 3.68, PBLUC_R_SQUARED 0.383, read-out: LUCIFERASE INFECTION ASSAY - IC50): 6.05 µM
26 | CCOC(=O)c1sc(N)c(C#N)c1COC(=O)/C=C/c1cn(-c2ccccc2)nc1-c1ccc(C)cc1 | > 10 | IC50 (PBLUC_HILL_SLOPE 3.64, PBLUC_R_SQUARED 0.326, read-out: LUCIFERASE INFECTION ASSAY - IC50): 6.32 µM
27 | CSc1sc(-c2ccnc(SCc3ccc(Cl)cc3)n2)c(-c2ccccc2)c1C#N | > 7.08 | IC50 (PBLUC_HILL_SLOPE 3.73, PBLUC_R_SQUARED 0.295, read-out: LUCIFERASE INFECTION ASSAY - IC50): 4.71 µM
28 | Cc1cccc(-c2cn3c(-c4ccc(C#N)cc4)cnc3cn2)c1C | 8.03 | IC50 (PBLUC_HILL_SLOPE 3.65, PBLUC_R_SQUARED 0.571, read-out: LUCIFERASE INFECTION ASSAY - IC50): 4.4 µM
29 | O=C(NCc1ccccc1)/C(=C/c1cn(-c2ccccc2)nc1-c1cccs1)c1nc2ccccc2[nH]1 | 9.82 | IC50 (PBLUC_HILL_SLOPE 3.73, PBLUC_R_SQUARED 0.245, read-out: LUCIFERASE INFECTION ASSAY - IC50): 5.45 µM
30 | COC(=O)c1cc(NC(=O)C(C)(C)Oc2ccc(Cl)cc2)ccc1F | > 10 | IC50 (PBLUC_HILL_SLOPE 3.63, PBLUC_R_SQUARED 0.0477, read-out: LUCIFERASE INFECTION ASSAY - IC50): > 10 µM
31 | CC(C)(C)c1cc(NC(=O)CN2CCN(CCOc3ccccc3)CC2)n(-c2ccccc2)n1 | > 10 | IC50 (PBLUC_HILL_SLOPE 3.74, PBLUC_R_SQUARED 0.753, read-out: LUCIFERASE INFECTION ASSAY - IC50): 6.22 µM
32 | CCCn1c(NC(=O)c2ccc(OCc3c(C)noc3C)c(OC)c2)nc2ccccc21 | > 10 | IC50 (PBLUC_HILL_SLOPE 3.7, PBLUC_R_SQUARED 0.447, read-out: LUCIFERASE INFECTION ASSAY - IC50): 6.12 µM
33 | Oc1cc2[nH]c3ccccc3c2cc1CN1CCN(Cc2ccccc2)CC1 | > 10 | IC50 (PBLUC_HILL_SLOPE 3.66, PBLUC_R_SQUARED 0.154, read-out: LUCIFERASE INFECTION ASSAY - IC50): 6.03 µM
34 | CCc1nc(N2CCN(C(=O)c3ccco3)CC2)c2ccc(Cl)cc2n1 | > 8.9 | IC50 (PBLUC_HILL_SLOPE 3.74, PBLUC_R_SQUARED 0.373, read-out: LUCIFERASE INFECTION ASSAY - IC50): 6.91 µM
35 | Cc1cc(=O)nc(N/N=C/c2c(C)nn(-c3ccccc3)c2Oc2ccc(F)cc2)[nH]1 | > 10 | IC50 (PBLUC_HILL_SLOPE 3.64, PBLUC_R_SQUARED 0.538, read-out: LUCIFERASE INFECTION ASSAY - IC50): 6.15 µM
36 | CCCN(CC(=O)Nc1cc(-c2ccccc2)sc1C(=O)OCC)Cc1nnc(-c2ccco2)o1 | > 10 | IC50 (PBLUC_HILL_SLOPE 3.67, PBLUC_R_SQUARED 0.341, read-out: LUCIFERASE INFECTION ASSAY - IC50): 7.32 µM
37 | S=C(Nc1ccc(Cl)c(Cl)c1)N1c2ccccc2-n2cccc2C1c1cccnc1 (stereo not given) | 6.49 | IC50 (PBLUC_HILL_SLOPE 3.68, PBLUC_R_SQUARED 0.381, read-out: LUCIFERASE INFECTION ASSAY - IC50): 3.57 µM
38 | O=C(Nc1ccc(Oc2ccccc2)cc1)c1noc(-c2ccccc2)n1 | 6.61 | IC50 (PBLUC_HILL_SLOPE 3.74, PBLUC_R_SQUARED 0.217, read-out: LUCIFERASE INFECTION ASSAY - IC50): 3.67 µM
39 | CN(C)CC(=O)N1CCN(c2nc(/C=C/c3ccccc3)nc3sc4c(c23)CCCC4)CC1 | 5.01 | IC50 (PBLUC_HILL_SLOPE 3.64, PBLUC_R_SQUARED 0.565, read-out: LUCIFERASE INFECTION ASSAY - IC50): 2.74 µM
40 | FC(F)(F)c1cc(NCc2ccccc2Cl)nc(-c2ccccn2)n1 | 6.29 | IC50 (PBLUC_HILL_SLOPE 3.68, PBLUC_R_SQUARED 0.577, read-out: LUCIFERASE INFECTION ASSAY - IC50): 3.46 µM
